Reference: patent US8426437B2, “Pyrroloquinoline derivatives and their use as protein kinases inhibitors” (Pierre Fabre Medicament, priority 2005, dated 2013)
Counter-ions that a name gives are not always drawn.

What follows are compounds tested against T1, RET (Homo sapiens, UniProt P07949) (assay: Inhibition of RET kinase activity, recombinant RET method (Kinase-Glo)). Conditions: RET 2 μg/ml, poly-EY4 substrate, 20 μM ATP, two hours at 30° C.
T1 construct: purchased Upstate 14-570MG
Type: biochemical
Procedure, shortened: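 Recombinant RET at 2 μg/ml in 20 mM MOPS/NaOH pH 7.0, 1 mM EDTA, 5% glycerol, 0.01% Brij35, 0.1% 2-mercaptoethanol, 1 mg/ml BSA; compounds 10 nM–30 μM final.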

T1 sequence (P07949 29-1114): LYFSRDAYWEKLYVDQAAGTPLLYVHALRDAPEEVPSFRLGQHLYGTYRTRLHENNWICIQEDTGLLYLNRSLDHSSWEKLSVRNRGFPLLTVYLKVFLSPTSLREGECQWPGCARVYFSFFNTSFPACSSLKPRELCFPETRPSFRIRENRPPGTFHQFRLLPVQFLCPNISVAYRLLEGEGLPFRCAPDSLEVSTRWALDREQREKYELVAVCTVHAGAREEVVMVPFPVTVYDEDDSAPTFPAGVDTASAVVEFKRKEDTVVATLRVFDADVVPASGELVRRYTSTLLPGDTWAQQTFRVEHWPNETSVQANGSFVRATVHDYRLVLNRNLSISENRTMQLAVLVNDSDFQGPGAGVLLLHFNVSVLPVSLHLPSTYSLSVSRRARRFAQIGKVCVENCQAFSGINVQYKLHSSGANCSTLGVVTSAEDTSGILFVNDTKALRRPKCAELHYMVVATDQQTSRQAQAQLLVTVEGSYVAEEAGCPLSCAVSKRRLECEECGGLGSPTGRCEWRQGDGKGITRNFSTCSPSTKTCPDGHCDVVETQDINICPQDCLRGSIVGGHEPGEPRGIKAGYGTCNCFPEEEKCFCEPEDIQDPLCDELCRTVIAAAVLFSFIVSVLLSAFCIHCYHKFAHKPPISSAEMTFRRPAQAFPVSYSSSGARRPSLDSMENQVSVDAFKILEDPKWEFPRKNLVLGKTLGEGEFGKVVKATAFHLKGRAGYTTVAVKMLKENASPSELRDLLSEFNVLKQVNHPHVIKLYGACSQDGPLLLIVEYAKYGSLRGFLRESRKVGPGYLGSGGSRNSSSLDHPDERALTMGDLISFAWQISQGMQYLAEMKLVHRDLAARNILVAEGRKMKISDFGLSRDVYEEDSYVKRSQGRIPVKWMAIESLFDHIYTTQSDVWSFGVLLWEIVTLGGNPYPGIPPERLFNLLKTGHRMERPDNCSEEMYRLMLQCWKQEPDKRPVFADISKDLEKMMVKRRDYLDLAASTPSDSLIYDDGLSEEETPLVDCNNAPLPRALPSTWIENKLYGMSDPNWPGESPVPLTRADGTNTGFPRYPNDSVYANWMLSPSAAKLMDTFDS

Row | Compound | IC50 [nM]
1 | CCCOC(=O)c1c[nH]c2c(=O)[nH]c3ccc(S(=O)(=O)N(C)CCN4CCCC4)cc3c12 [Compound 137, 8-[Methyl-(2-pyrrolidin-1-yl-ethyl)-sulfamoyl]-4-oxo-4,5-dihydro-3H-pyrrolo[2,3-c]quinoline-1-propyl carboxylate] | 100 to 1000
2 | CCCOC(=O)c1c[nH]c2c(=O)[nH]c3ccc(S(=O)(=O)N(C)CCN(CC)CC)cc3c12 [Compound 138, 8-[(2-Diethylamino-ethyl)-methyl-sulfamoyl]-4-oxo-4,5-dihydro-3H-pyrrolo[2,3-c]quinoline-1-propyl carboxylate] | 100 to 1000
3 | CCCOC(=O)c1c[nH]c2c(=O)[nH]c3ccc(S(=O)(=O)N(C)CCNC)cc3c12 [Compound 139, 8-[Methyl-(2-methylamino-ethyl)-sulfamoyl]-4-oxo-4,5-dihydro-3H-pyrrolo[2,3-c]quinoline-1-propyl carboxylate hydrochloride] | < 100
4 | CCCOC(=O)c1c[nH]c2c(=O)[nH]c3ccc(S(=O)(=O)N(C)CCN(C)C(=O)OC(C)(C)C)cc3c12 [Compound 140, 8-{[2-(tert-Butoxycarbonyl-methyl-amino)-ethyl]-methyl-sulfamoyl}-4-oxo-4,5-dihydro-3H-pyrrolo[2,3-c]quinoline-1-propyl carboxylate] | 1000 to 10000
5 | CCCOC(=O)c1c[nH]c2c(=O)[nH]c3ccc(S(=O)(=O)N(CCNC(C)C)C4CC4)cc3c12 [Compound 142, 8-[Cyclopropyl-(2-isopropylamino-ethyl)-sulfamoyl]-4-oxo-4,5-dihydro-3H-pyrrolo[2,3-c]quinoline-1-propyl carboxylate hydrochloride] | 100 to 1000
6 | CCCOC(=O)c1c[nH]c2c(=O)[nH]c3ccc(S(=O)(=O)N(Cc4c[nH]cn4)C4CC4)cc3c12 [Compound 143, 8-[Cyclopropyl-(1H-imidazol-4-ylmethyl)-sulfamoyl]-4-oxo-4,5-dihydro-3H-pyrrolo[2,3-c]quinoline-1-propyl carboxylate hydrochloride] | 100 to 1000
7 | CCCOC(=O)c1c[nH]c2c(=O)[nH]c3ccc(S(=O)(=O)N(C[C@H]4CCCN4C)C4CC4)cc3c12 [Compound 146, (R)-8-[Cyclopropyl-(1-methyl-pyrrolidin-2-ylmethyl)-sulfamoyl]-4-oxo-4,5-dihydro-3H-pyrrolo[2,3-c]quinoline-1-propyl carboxylate] | 100 to 1000
8 | CCCOC(=O)c1c[nH]c2c(=O)[nH]c3ccc(S(=O)(=O)N(C[C@H]4CCCN4C(=O)OC(C)(C)C)C4CC4)cc3c12 [Compound 147, (R)-8-[(1-tert-Butoxycarbony-pyrrolidin-2-ylmethyl)-cyclopropyl-sulfamoyl]-4-oxo-4,5-dihydro-3H-pyrrolo[2,3-c]quinoline-1-propyl carboxylate] | 1000 to 10000
9 | CCCOC(=O)c1c[nH]c2c(=O)[nH]c3ccc(S(=O)(=O)N(C[C@H]4CCCN4)C4CC4)cc3c12 [Compound 148, (R)-8-(Cyclopropyl-pyrrolidin-2-ylmethyl-sulfamoyl)-4-oxo-4,5-dihydro-3H-pyrrolo[2,3-c]quinoline-1-propyl carboxylate hydrochloride] | 100 to 1000
10 | C#CCN(C[C@@H]1CCCN1C)S(=O)(=O)c1ccc2[nH]c(=O)c3[nH]cc(C(=O)OCCC)c3c2c1 [Compound 151, (S)-8-[(1-Methyl-pyrrolidin-2-ylmethyl)-prop-2-ynyl-sulfamoyl]-4-oxo-4,5-dihydro-3H-pyrrolo[2,3-c]quinoline-1-propyl carboxylate] | 100 to 1000
11 | CCCOC(=O)c1c[nH]c2c(=O)[nH]c3ccc(S(=O)(=O)N(C[C@H](C)NC(=O)OC(C)(C)C)C4CC4)cc3c12 [Compound 152, (S)-8-[(2-tert-Butoxycarbonylamino-propyl)-cyclopropyl-sulfamoyl]-4-oxo-4,5-dihydro-3H-pyrrolo[2,3-c]quinoline 1-propyl carboxylate] | 100 to 1000
12 | CCCOC(=O)c1c[nH]c2c(=O)[nH]c3ccc(S(=O)(=O)N(C[C@@H](C)NC(=O)OC(C)(C)C)C4CC4)cc3c12 [Compound 154, (R)-8-[(2-tert-Butoxycarbonylamino-propyl)-cyclopropyl-sulfamoyl]-4-oxo-4,5-dihydro-3H-pyrrolo[2,3-c]quinoline-1-propyl carboxylate] | 1000 to 10000
13 | C#CCN(CCNC)S(=O)(=O)c1ccc2[nH]c(=O)c3[nH]cc(C(=O)OCCC)c3c2c1 [Compound 156, 8-[(2-Methylamino-ethyl)-prop-2-ynyl-sulfamoyl]-4-oxo-4,5-dihydro-3H-pyrrolo[2,3-c]quinoline-1-propyl carboxylate hydrochloride] | < 100
14 | C#CCN(CCN(C)C(=O)OC(C)(C)C)S(=O)(=O)c1ccc2[nH]c(=O)c3[nH]cc(C(=O)OCCC)c3c2c1 [Compound 157, 8-{[2-(tert-Butoxycarbonyl-methyl-amino)-ethyl]-prop-2-ynyl-sulfamoyl}-4-oxo-4,5-dihydro-3H-pyrrolo[2,3-c]quinoline-1-propyl carboxylate] | < 100
15 | C#CCN(CCNC(C)C)S(=O)(=O)c1ccc2[nH]c(=O)c3[nH]cc(C(=O)OCCC)c3c2c1 [Compound 158, 8-[(2-isopropylamino-ethyl)-prop-2-ynyl-sulfamoyl]-4-oxo-4,5-dihydro-3H-pyrrolo[2,3-c]quinoline-1-propyl carboxylate hydrochloride] | 100 to 1000
16 | C#CCN(CCN(C(=O)OC(C)(C)C)C(C)C)S(=O)(=O)c1ccc2[nH]c(=O)c3[nH]cc(C(=O)OCCC)c3c2c1 [Compound 159, 8-{[2-(tert-Butoxycarbonyl-isopropyl-amino)-ethyl]-prop-2-ynyl-sulfamoyl}-4-oxo-4,5-dihydro-3H-pyrrolo[2,3-c]quinoline-1-propyl carboxylate] | 1000 to 10000
17 | CCCOC(=O)c1c[nH]c2c(=O)[nH]c3ccc(S(=O)(=O)N(CC)[C@H]4CCNC4)cc3c12 [Compound 160, (S)-8-(Ethyl-pyrrolidin-3-yl-sulfamoyl)-4-oxo-4,5-dihydro-3H-pyrrolo[2,3-c]quinoline-1-propyl carboxylate hydrochloride] | < 100
18 | CCCOC(=O)c1c[nH]c2c(=O)[nH]c3ccc(S(=O)(=O)N(CC)[C@H]4CCN(C)C4)cc3c12 [Compound 161, (S)-8-[Ethyl-(1-methyl-pyrrolidin-3-yl)-sulfamoyl]-4-oxo-4,5-dihydro-3H-pyrrolo[2,3-c]quinoline-1-propyl carboxylate] | < 100
19 | CCOC(=O)c1c[nH]c2c(=O)[nH]c3ccc(S(=O)(=O)N4CCC[C@H]4CN4CCCC4)cc3c12 [Compound 163, (S)-4-Oxo-8-(2-pyrrolidin-1-ylmethyl-pyrrolidine-1-sulfonyl)-4,5-dihydro-3H-pyrrolo[2,3-c]quinoline-1-ethyl carboxylate] | 100 to 1000
20 | CCCOC(=O)c1c[nH]c2c(=O)[nH]c3ccc(S(=O)(=O)N4CC[C@H](NC(=O)OC(C)(C)C)C4)cc3c12 [Compound 164, (S)-8-(3-tert-Butoxycarbonylamino-pyrrolidine-1-sulfonyl)-4-oxo-4,5-dihydro-3H-pyrrolo[2,3-c]quinoline-1-propyl carboxylate] | 1000 to 10000
21 | CC(C)(C)OC(=O)N[C@H]1CCN(S(=O)(=O)c2ccc3[nH]c(=O)c4[nH]cc(C(=O)O)c4c3c2)C1 [Compound 165, (S)-8-(3-tert-Butoxycarbonylamino-pyrrolidine-1-sulfonyl)-4-oxo-4,5-dihydro-3H-pyrrolo[2,3-c]quinoline-1-carboxylic acid] | 10000 to 100000
